Test results: US20160185745A1, “ANALOGS OF VINAXANTHONE AND XANTHOFULVIN, METHODS OF SYNTHESIS, AND METHODS OF TREATMENTS THEREOF” (BOARD OF REGENTS, THE UNIVERSITY OF TEXAS SYSTEM, priority 2013, published 2016)

What was measured:
SUCNR1 = target: T1, SUCNR1 (Homo sapiens, UniProt Q9BXA5); assay: modulation of SUCNR1 when administered with sodium succinate; type: cell-based; details: compared to sodium succinate alone
T1 sequence (Q9BXA5 1-334): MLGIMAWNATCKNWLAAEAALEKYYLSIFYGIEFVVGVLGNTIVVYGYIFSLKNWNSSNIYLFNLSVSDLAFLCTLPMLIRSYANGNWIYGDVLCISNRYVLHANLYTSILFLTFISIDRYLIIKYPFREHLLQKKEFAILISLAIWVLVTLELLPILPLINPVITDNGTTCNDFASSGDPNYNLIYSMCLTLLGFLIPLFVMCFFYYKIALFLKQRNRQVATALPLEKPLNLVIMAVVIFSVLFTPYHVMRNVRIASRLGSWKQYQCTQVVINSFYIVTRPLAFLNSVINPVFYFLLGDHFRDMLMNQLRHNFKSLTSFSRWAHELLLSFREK
Protocol: The values are compared to 100% activation by sodium succinate.
(§1) Control: 0.2% DMSO in M9 buffer. […] Additionally, several analogs were prepared and their biological activity was measured.

[1] = system: GFP-labeled cholinergic neurons; assay: outgrowth of GFP-labeled cholinergic neurons in vivo in C. elegans; details: for outgrowth activity of GFP-labeled cholinergic neurons: control 0.2% DMSO in M9 buffer, compared with dibutyryl cAMP
Protocol: as §1

semaphorin 3A (Sema3A) = target: T2, semaphorin 3A (Sema3A) (Homo sapiens, UniProt Q14563); details: read-out: Sema3A inhibitory activity IC50 (converted); cited from earlier work
T2 sequence (Q14563 21-771): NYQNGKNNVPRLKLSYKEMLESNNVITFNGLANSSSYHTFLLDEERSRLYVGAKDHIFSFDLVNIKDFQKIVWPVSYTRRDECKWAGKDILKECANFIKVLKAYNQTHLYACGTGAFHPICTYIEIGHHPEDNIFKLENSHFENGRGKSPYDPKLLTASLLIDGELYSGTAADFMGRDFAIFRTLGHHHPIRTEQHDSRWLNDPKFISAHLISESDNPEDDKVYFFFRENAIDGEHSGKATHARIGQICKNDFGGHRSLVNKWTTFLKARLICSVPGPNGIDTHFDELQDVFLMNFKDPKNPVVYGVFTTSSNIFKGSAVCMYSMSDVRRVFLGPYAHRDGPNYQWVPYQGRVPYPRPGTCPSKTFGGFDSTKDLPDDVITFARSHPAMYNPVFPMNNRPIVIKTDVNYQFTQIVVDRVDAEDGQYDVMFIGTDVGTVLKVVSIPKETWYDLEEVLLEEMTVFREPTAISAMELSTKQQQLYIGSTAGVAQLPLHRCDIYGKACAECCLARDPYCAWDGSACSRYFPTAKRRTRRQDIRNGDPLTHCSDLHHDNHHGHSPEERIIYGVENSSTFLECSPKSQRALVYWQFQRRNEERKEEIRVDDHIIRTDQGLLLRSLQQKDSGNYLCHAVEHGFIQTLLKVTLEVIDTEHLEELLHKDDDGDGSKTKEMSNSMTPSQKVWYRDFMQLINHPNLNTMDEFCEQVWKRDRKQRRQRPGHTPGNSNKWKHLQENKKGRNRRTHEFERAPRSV

[2] = at concentrations >1000 times the effective dose; cited from earlier work

## CC(=O)c1c(C)c(/C(O)=C2\COc3cc(O)c(O)c(C(=O)O)c3C2=O)cc2c(=O)c3c(C(=O)O)c(O)c(O)cc3oc12 [xanthofulvin]
SUCNR1
  Dose ratio: 0.32
  efficacy value: 222%
[1]
  outgrowth activity of GFP-labeled cholinergic neurons: comparable to dibutyryl cAMP

## CC(=O)c1cc2c(=O)c3c(C(=O)O)c(O)c(O)cc3oc2c(C(C)=O)c1-c1coc2cc(O)c(O)c(C(=O)O)c2c1=O [vinaxanthone, 5,7-diacetyl-6-(5-carboxy-6,7-dihydroxy-4-oxo-4H-chromen-3-yl)-2,3-dihydroxy-9-oxo-9H-xanthene-1-carboxylic acid]
Semaphorin 3A (Sema3A)
  IC50: 0.173 µM
[2]
  cytotoxicity effects: no observable cytotoxicity effects
SUCNR1
  Dose ratio: 0.33
  efficacy value: 230%
[1]
  outgrowth activity of GFP-labeled cholinergic neurons: comparable to dibutyryl cAMP

## CCCC(=O)Nc1ncnc2c1ncn2[C@@H]1O[C@@H]2COP(=O)(O)O[C@H]2[C@H]1OC(=O)CCC [dibutyryl cAMP, reference compound]
[1]; at 2 mM
  promotes branching in % of animals: 36%
